# Measured values from patent US20240261258A1, “Presurgical Perineural Administration of Resiniferatoxin For Reduction of Post-Operative Pain” (Sorrento Therapeutics, Inc., priority 2021, published 2024).
# Marks after values point to notes of the source that are not given here.
# System: left stifle joint
# Assay: Necropsy and histopathology of stifle joints
# Format: in vivo, dog
# Conditions: for Bone remodeling with increased osteoblasts/osteoclasts: Mild, number of dogs / Bone remodeling with increased osteoblasts/osteoclasts: Minimal, number of dogs / Bone remodeling with increased osteoblasts/osteoclasts: Moderate, number of dogs / Bone remodeling with increased osteoblasts/osteoclasts: number of dogs with the finding / Collagen (picosirius red stain): number of dogs with the finding / Non-epiphyseal cartilage: Mild, number of dogs / Non-epiphyseal cartilage: Minimal, number of dogs / Non-epiphyseal cartilage: Moderate, number of dogs / Non-epiphyseal cartilage: number of dogs with the finding / Screw holes with intraluminal hemorrhage: Mild, number of dogs / Screw holes with intraluminal hemorrhage: number of dogs with the finding / Soft tissue mononuclear inflammation: Mild, number of dogs / Soft tissue mononuclear inflammation: Minimal, number of dogs / Soft tissue mononuclear inflammation: number of dogs with the finding / Synovial hypertrophy/hyperplasia: Mild, number of dogs / Synovial hypertrophy/hyperplasia: Minimal, number of dogs / Synovial hypertrophy/hyperplasia: Moderate, number of dogs / Synovial hypertrophy/hyperplasia: number of dogs with the finding: left stifle joint, 4 examined; for Average collagen score left leg (picosirius red): operated left stifle; for Average collagen score right leg (picosirius red): un-operated right stifle
# Excerpt: These findings were confirmed during necropsy.
# It was characterized by plump, variably piled synoviocytes with slightly more prominent fibrillary projections into the synovial spaces as compared to the control right stifle joints. Some control un-operated right stifle joints also occasionally had minimal synovial hypertrophy/hyperplasia typified by slightly plump, variably piled synoviocytes, but lacked increased fibrillary projections.
# Soft tissue mononuclear inflammation was seen as small collections of lymphocytes, macrophages, and/or plasma cells or increased numbers of diffusely scattered mononuclear cells. The inflammation was commonly seen in the synovial lining subjacent to the synoviocytes, or in soft tissues that remained attached to the bone/joint. The incidences and average severity grades were not remarkably different between left joint groups.
# Bone remodeling with increased osteoblasts/osteoclasts was characterized by irregular areas of bone/callous formation. Some areas of bone remodeling had increased cellularity due to increased numbers of osteoblasts and osteoclasts that outlined bone.
# Presence of cartilage on the operated sides was presumptively interpreted to represent areas of residual cartilage in the physis which had been shifted/transposed by the TPLO surgery, and/or new cartilage formation. The amount of cartilage in each section was subjectively graded using the H&E and toluidine blue stains. […] Any differences could also be influenced by differences in physeal cartilage amounts/extent of physeal closure between dogs, and by plane-of-section variabilities.
# A collagen score for each of the stifle joint slides stained with picosirius red was assigned based on the qualitative estimate of collagen present on the slide. The average of the three slides per joint was recorded. An overall collagen score for the left and right stifle joints for each group was calculated by averaging the individual collagen scores. […] The average collagen scores of groups 1-4 for the operated left legs were slightly higher than the corresponding un-operated right leg group average collagen scores. Higher collagen in the operated legs seemed consistent with post-surgical healing processes.
compound,measurement,setting,value
"C=C(C)[C@]12C[C@@H](C)[C@@]34O[C@](Cc5ccccc5)(O[C@@H]1[C@@H]3C=C(COC(=O)Cc1ccc(O)c(OC)c1)C[C@]1(O)C(=O)C(C)=C[C@@H]41)O2 [RTX, resiniferatoxin]",Microscopic changes in the left stifle joints,"all RTX groups, day 56",No microscopic changes in the left stifle joints suggestive of RTX-related toxicity
same,Callus at removal of the TPLO plate,"all stifles, confirmed during necropsy",normal callus
same,"Bone remodeling with increased osteoblasts/osteoclasts: Mild, number of dogs",Group 1 High (25 μg),2
same,"Bone remodeling with increased osteoblasts/osteoclasts: Minimal, number of dogs",Group 1 High (25 μg),2
same,"Bone remodeling with increased osteoblasts/osteoclasts: Moderate, number of dogs",Group 1 High (25 μg),0
same,Bone remodeling with increased osteoblasts/osteoclasts: number of dogs with the finding,Group 1 High (25 μg),(4)
same,Collagen (picosirius red stain): number of dogs with the finding,Group 1 High (25 μg),(4)
same,"Non-epiphyseal cartilage: Mild, number of dogs",Group 1 High (25 μg),1
same,"Non-epiphyseal cartilage: Minimal, number of dogs",Group 1 High (25 μg),1
same,"Non-epiphyseal cartilage: Moderate, number of dogs",Group 1 High (25 μg),2
same,Non-epiphyseal cartilage: number of dogs with the finding,Group 1 High (25 μg),(4)
same,"Screw holes with intraluminal hemorrhage: Mild, number of dogs",Group 1 High (25 μg),4
same,Screw holes with intraluminal hemorrhage: number of dogs with the finding,Group 1 High (25 μg),(4)
same,"Soft tissue mononuclear inflammation: Mild, number of dogs",Group 1 High (25 μg),1
same,"Soft tissue mononuclear inflammation: Minimal, number of dogs",Group 1 High (25 μg),3
same,Soft tissue mononuclear inflammation: number of dogs with the finding,Group 1 High (25 μg),(4)
same,"Synovial hypertrophy/hyperplasia: Mild, number of dogs",Group 1 High (25 μg),4
same,"Synovial hypertrophy/hyperplasia: Minimal, number of dogs",Group 1 High (25 μg),0
same,"Synovial hypertrophy/hyperplasia: Moderate, number of dogs",Group 1 High (25 μg),0
same,Synovial hypertrophy/hyperplasia: number of dogs with the finding,Group 1 High (25 μg),(4)
same,"Bone remodeling with increased osteoblasts/osteoclasts: Mild, number of dogs",Group 2 Low (6.25 μg),2
same,"Bone remodeling with increased osteoblasts/osteoclasts: Minimal, number of dogs",Group 2 Low (6.25 μg),1
same,"Bone remodeling with increased osteoblasts/osteoclasts: Moderate, number of dogs",Group 2 Low (6.25 μg),1
same,Bone remodeling with increased osteoblasts/osteoclasts: number of dogs with the finding,Group 2 Low (6.25 μg),(4)^a
same,Collagen (picosirius red stain): number of dogs with the finding,Group 2 Low (6.25 μg),(4)^a
same,"Non-epiphyseal cartilage: Mild, number of dogs",Group 2 Low (6.25 μg),1
same,"Non-epiphyseal cartilage: Minimal, number of dogs",Group 2 Low (6.25 μg),1
same,"Non-epiphyseal cartilage: Moderate, number of dogs",Group 2 Low (6.25 μg),2
same,Non-epiphyseal cartilage: number of dogs with the finding,Group 2 Low (6.25 μg),(4)^a
same,"Screw holes with intraluminal hemorrhage: Mild, number of dogs",Group 2 Low (6.25 μg),4
same,Screw holes with intraluminal hemorrhage: number of dogs with the finding,Group 2 Low (6.25 μg),(4)^a
same,"Soft tissue mononuclear inflammation: Mild, number of dogs",Group 2 Low (6.25 μg),4
same,"Soft tissue mononuclear inflammation: Minimal, number of dogs",Group 2 Low (6.25 μg),0
same,Soft tissue mononuclear inflammation: number of dogs with the finding,Group 2 Low (6.25 μg),(4)^a
same,"Synovial hypertrophy/hyperplasia: Mild, number of dogs",Group 2 Low (6.25 μg),3
same,"Synovial hypertrophy/hyperplasia: Minimal, number of dogs",Group 2 Low (6.25 μg),0
same,"Synovial hypertrophy/hyperplasia: Moderate, number of dogs",Group 2 Low (6.25 μg),1
same,Synovial hypertrophy/hyperplasia: number of dogs with the finding,Group 2 Low (6.25 μg),(4)^a
same,"Bone remodeling with increased osteoblasts/osteoclasts: Mild, number of dogs",Group 3 Local (50 μg),2
same,"Bone remodeling with increased osteoblasts/osteoclasts: Minimal, number of dogs",Group 3 Local (50 μg),0
same,"Bone remodeling with increased osteoblasts/osteoclasts: Moderate, number of dogs",Group 3 Local (50 μg),2
same,Bone remodeling with increased osteoblasts/osteoclasts: number of dogs with the finding,Group 3 Local (50 μg),(4)
same,Collagen (picosirius red stain): number of dogs with the finding,Group 3 Local (50 μg),(4)
same,"Non-epiphyseal cartilage: Mild, number of dogs",Group 3 Local (50 μg),2
same,"Non-epiphyseal cartilage: Minimal, number of dogs",Group 3 Local (50 μg),0
same,"Non-epiphyseal cartilage: Moderate, number of dogs",Group 3 Local (50 μg),2
same,Non-epiphyseal cartilage: number of dogs with the finding,Group 3 Local (50 μg),(4)
same,"Screw holes with intraluminal hemorrhage: Mild, number of dogs",Group 3 Local (50 μg),4
same,Screw holes with intraluminal hemorrhage: number of dogs with the finding,Group 3 Local (50 μg),(4)
same,"Soft tissue mononuclear inflammation: Mild, number of dogs",Group 3 Local (50 μg),2
same,"Soft tissue mononuclear inflammation: Minimal, number of dogs",Group 3 Local (50 μg),2
same,Soft tissue mononuclear inflammation: number of dogs with the finding,Group 3 Local (50 μg),(4)
same,"Synovial hypertrophy/hyperplasia: Mild, number of dogs",Group 3 Local (50 μg),3
same,"Synovial hypertrophy/hyperplasia: Minimal, number of dogs",Group 3 Local (50 μg),0
same,"Synovial hypertrophy/hyperplasia: Moderate, number of dogs",Group 3 Local (50 μg),1
same,Synovial hypertrophy/hyperplasia: number of dogs with the finding,Group 3 Local (50 μg),(4)
same,Average collagen score left leg (picosirius red),Group 1 High (25 μg),2.9
same,Average collagen score left leg (picosirius red),Group 2 Low (6.25 μg),2.6
same,Average collagen score left leg (picosirius red),Group 3 Local (50 μg),3.0
same,Average collagen score right leg (picosirius red),Group 1 High (25 μg),2.3
same,Average collagen score right leg (picosirius red),Group 2 Low (6.25 μg),2.3
same,Average collagen score right leg (picosirius red),Group 3 Local (50 μg),2.4
